Experimental data taken from patent publication US20190298650A1, “FORMULATION AND COMPOSITION FOR PREVENTING AND/OR DISSOLVING BIOFILM ON THE SKIN OF A DOMESTIC ANIMAL” (Dechra Veterinary Products LLC, priority 2018, published 2019).
Values after ≈ are worked out from the molar mass of the structure shown.

How the values were obtained:
[1] = test system: Pseudomonas spp isolates from clinical canine otitis cases (biofilm); assay: Biofilm breaking assay (crystal violet OD570 on a 24 h pre-formed biofilm); assay type: cell-based; details: only NAC 5 mg/mL, 14 isolates
Method: One hundred Pseudomonas spp isolates from clinical canine otitis cases from the UK (96), Dubai (3) and Malta (1) were submitted to NationWide Laboratories Knutton (CAPL) for routine culture and susceptibility testing over a 12 month period. Four isolates were from two dogs with bilateral otitis. […] Isolates were then stored frozen of beads (ProLab UK) at -20° C. […] Negative control wells, in triplicate, contained 180 μL of LBB and 20 μL of distilled, sterile water. Plates were then incubated for 24 hours at 37° C. Contents of the wells were discarded prior to washing three times in phosphate buffered saline (PBS) at pH 7.2. […] 100 μL of Luria-Bertani enrichment broth (LBB) and 100 μL of sterile, distilled water for negative control. […] For the biofilm breaking assay the following dilutions where tested. The dilutions were made using a Broth (LBB). […] Plates were then incubated for another 24 hours period. Contents of the wells were discarded prior to washing three times in phosphate buffered saline (PBS) at pH 7.2. […] The contents were removed by micropipetting before plates rinsed thoroughly under running water. […] Plates were covered to prevent evaporation.

[2] = test system: Pseudomonas spp isolates from clinical canine otitis cases; assay: Biofilm prevention assay (MIC read visually, then crystal violet OD570); assay type: cell-based; details: 28 isolates, LBB, 24 h at 37° C., NAC alone
From the text: One hundred Pseudomonas spp isolates from clinical canine otitis cases from the UK (96), Dubai (3) and Malta (1) were submitted to NationWide Laboratories Knutton (CAPL) for routine culture and susceptibility testing over a 12 month period. Four isolates were from two dogs with bilateral otitis.
The dilutions were made using a Broth (LBB).
Contents of the wells were discarded prior to washing three times in phosphate buffered saline (PBS) at pH 7.2. […] The contents were removed by micropipetting before plates rinsed thoroughly under running water. […] Plates were covered to prevent evaporation.

- MIC [2]: 50 mg/mL (≈ 306 mM)
Structure (SMILES): CC(=O)N[C@@H](CS)C(=O)O [NAC, (2R)-2-acetamido-3-sulfanylpropanoic acid]
- optical density (OD570) Max. [1]: 1.40
- optical density (OD570) Mean [1]: 0.38
- optical density (OD570) Median [1]: 0.26
- optical density (OD570) Min. [1]: −0.03
